Several values for one entry are separate records, joined by “and”; a condition that tells them apart may be missing. Identical values can stand only once.
What was measured:
[1] = tested on: VCR resistant murine leukemia (P388/VCR) cells; test: In vivo overcoming of resistance in VCR resistant murine leukemia (P388/VCR) bearing mice, etoposide with compound 10 mg/kg; set-up: species or system CDF1 female mice; settings: for Average days of survival / Effect of overcoming resistance T/V / Rate of prolongation of life T/C: VP-16 3 mg/kg + compound 10 mg/kg; for Effect of overcoming resistance T/V: vs VP-16 alone
Method: (§1) 1.2×10^5 VCR resistant murine leukemia (P388/VCR) cells were transplanted intravenously into groups of 5-6 CDF1 female mice, then the compound of the present invention (20 mg/kg) and Etoposide (VP-16) (3 mg/kg) were administered intravenously once per day for 5 days, after dissolving them in a physiological salt solution containing a small amount of hydrochloric acid. The observation was started from the next day. The number of survival days were found and the life prolonging rate (T/C) with respect to the controls was found. The effect in overcoming resistance to an anti-cancer drug (T/V) was found by the following formula.
(§2) Effect of overcoming resistance to the anti-cancer drug (T/V) %
(§3) =[(Rate of prolongation of life using VP-16 and the present compound (T/C))/(Rate of prolongation of life using VP-16 alone (T/C))]×100
In Vivo Test of Action Suppressing Proliferation of Cancer Cells by Combined Administration of Anti-Cancer Drug Etoposide
The Test Example 3 was repeated using 10 mg/kg administration of the present compound and the effects of overcoming resistance to the anti-cancer drug were determined from the average days of survival.

[2] = tested on: VCR resistant murine leukemia (P388/VCR) cells; test: In vivo overcoming of resistance in VCR resistant murine leukemia (P388/VCR) bearing mice, etoposide with compound 20 mg/kg; set-up: species or system CDF1 female mice; settings: for Average days of survival / Rate of prolongation of life T/C: VP-16 3 mg/kg + compound 20 mg/kg
Method: In Vivo Test of Action Suppressing Proliferation of Cancer Cells by Combined Administration of Anti-cancer Drug Etoposide
Effect of Overcoming Resistance to an Anti-cancer Drug for VCR Resistant Murine Leukemia Cell Bearing Mice
as §1, §2, §3

[3] = tested on: thoracic aorta of the rat; test: Action easing KCl contraction in rat arteries; settings: rat thoracic aorta ring, 50 mM KCl, compound 10^-6 M; read-out: Inhibitory rate of hyperpotassium contraction at 10^-6 M
Method: Action Easing KCl Contraction in Rat Arteries
The specimen was stabilized for approximately 60 minutes, then a potassium chloride solution was added to the Magnus tube to give a final concentration of 50 mM. The positive control compound or the compound of the present invention was cumulatively added to become 1×10^-6 M when the contraction reaction occurring at that time reached equilibrium. The contraction force was recorded by an FD-pickup (Nihon Koden) via a polygraph (Nihon Koden).

[4] = VP-16 alone 3 mg/kg, reference = 100
[5] = i.v. once per day for 5 days, vs control

Compound | Average days of survival ([2]; i.v. once per day for 5 days) [days] | Rate of prolongation of life T/C [2, 5] [%] | further results
COc1cc([C@@H]2c3cc4c(cc3[C@@H](O[C@@H]3O[C@@H]5CO[C@@H](C)O[C@H]5[C@H](O)[C@H]3O)[C@H]3COC(=O)[C@H]23)OCO4)cc(OC)c1O [VP-16, Etoposide, reference compound] |  |  | Average days of survival (VP-16 alone) ([1]; VP-16 alone 3 mg/kg): 10.6 days; Effect of overcoming resistance T/V (VP-16 alone) [1, 4]: 100%; Rate of prolongation of life T/C (VP-16 alone) ([1]; VP-16 alone 3 mg/kg, vs control): 102%; Average days of survival (VP-16 alone) ([2]; VP-16 alone 3 mg/kg, i.v. once per day for 5 days): 9.5 days and 11.0 days and 10.5 days; Rate of prolongation of life T/C (VP-16 alone) ([2]; VP-16 alone 3 mg/kg, i.v. once per day for 5 days, vs control): 103% and 108% and 102%; Effect of overcoming resistance T/V (VP-16 alone) [2, 4]: 100%
CCOC(=O)C1=C(c2ccc(-n3c(C)nc4cnccc43)cc2)NC(C)=C(C(=O)OCC#Cc2cccnc2)C1C(C)c1ccccc1 (stereo not drawn) [Compound 7, 6-Methyl-4-(α-methylbenzyl)-2-[4-(2-methylimidazo[4,5-c]pyridin-1-yl)phenyl]-1,4-dihydropyridin-3,5-dicarboxylate 3-ethylester 5-[3-(3-pyridyl)-2-propynyl]ester] | 13.4 | 146 | 
CCOC(=O)C1=C(c2ccc(-n3c(C)nc4cnccc43)cc2)NC(C)=C(C(=O)OCC#Cc2cccnc2)C1CCc1ccccc1OC (centres unmarked) [Compound 13, 4-[2-(2-methoxyphenyl)ethyl]-6-methyl-2-[4-(2-methylimidazo[4,5-c]pyridin-1-yl)phenyl]-1,4-dihydropyridin-3,5-dicarboxylate 3-ethylester 5-[3-(3-pyridyl)-2-propynyly]ester] | 15.7 | 154 | 
CCOC(=O)C1=C(c2ccc(-n3c(C)nc4cnccc43)cc2)NC(C)=C(C(=O)OCC#Cc2cncc3ccccc23)C1/C=C/c1ccccc1 (centres unmarked) [Compound 20] | 14.7 | 144 | 
CCOC(=O)C1=C(c2ccc(-n3c(C)nc4cnccc43)cc2)NC(C)=C(C(=O)OCC#Cc2cccnc2)C1/C=C/c1ccccc1Cl (centres unmarked) [Compound 12, 4-[(E)-2-(2-chlorophenyl)ethenyl]-6-methyl-2-[4-(2-methylimidazo[4,5-c]pyridin-1-yl)phenyl]-1,4-dihydropyridin-3,5-dicarboxylate 3-ethylester 5-[3-(3pyridyl)-2-propynyl]ester] | 16.8 | 165 | 
CCOC(=O)C1=C(c2ccc(-n3c(C)nc4cnccc43)cc2)NC(C)=C(C(=O)OCC#Cc2cccnc2)C1CC1c2ccccc2C2C(c3ccccc31)C2(F)F (centres unmarked) [Compound 66, 4-(1,1-Difluoro-1,1a,6, 10b-tetrahydrodibenzoa,[a,e]cyclopropa[c]cyclohepten-6-ylmethyl)-6-methyl-2-[4-(2-methylimidazo[4,5-c]pyridin-1-yl)phenyl]-1,4-dihydropyridin-3,5-dicarboxylate 3-ethylester 5-[3-(3-pyridyl)-2-propynyl]ester] | 14.5 | 141 | 
CCOC(=O)C1=C(c2ccc(-n3c(C)nc4cnccc43)cc2)NC(C)=C(C(=O)OCC#Cc2cccnc2)C1CCc1ccccc1Cl (centres unmarked) [Compound 11, 4-[2-(2-Chlorophenyl)ethyl]-6-methyl-2-[4-(2-methylimidazo[4,5-c]pyridin-1-yl)phenyl]-1,4-dihydropyridin-3 ,5-dicarboxylate 3-ethylester 5-[3-(3-pyridyl)-2-propynyl]ester] | 15.8 | 155 | 
CCOC(=O)C1=C(c2ccc(-n3c(C)nc4cnccc43)cc2)NC(C)=C(C(=O)OCC#Cc2cnc3ccccc3c2)C1CCc1ccccc1 (centres unmarked) [Compound 18, 6-Methyl-2-[4-(2-methylimidazo[4,5-c]pyridin-1-yl)phenyl]-4-(2-phenylethyl)-1,4-dihydropyridin-3,5-dicarboxylate 3-ethylester 5-[3-(3-quinolyl)-2-propynyl]ester] | 16.0 | 157 | 
COc1ccc(CCN(C)CCCC(C#N)(c2ccc(OC)c(OC)c2)C(C)C)cc1OC (centres unmarked) [Verapamil, reference compound] |  |  | inhibition at 1 µM [3]: 42.3%
CCOC(=O)C1=C(c2ccc(-n3c(C)nc4cnccc43)cc2)NC(C)=C(C(=O)OCC#Cc2cccnc2)C1/C=C/c1ccccc1 (centres unmarked) [Compound 10, 6-Methyl-2-[4-(2-methylimidazo[4,5-c]pyridin-1-yl)phenyl]-4-[(E)-2-phenylethenyl]-1,4-dihydropyridin-3,5-dicarboxylate 3-ethylester 5-[3-(3-pyridyl)-2-propynyl]ester] | 17.0 | 185 | 
CCOC(=O)C1=C(c2ccc(-n3c(C)nc4cnccc43)cc2)NC(C)=C(C(=O)OCC#Cc2cccnc2)C1CC(c1ccc(F)cc1)c1ccc(F)cc1 (centres unmarked) [Compound 78] |  |  | Average days of survival [1]: 14.2 days; Effect of overcoming resistance T/V [1]: 134%; Rate of prolongation of life T/C ([1]; vs control): 137%
CCOC(=O)C1=C(c2ccc(-n3c(C)nc4cnccc43)cc2)NC(C)=C(C(=O)OCCC#Cc2cccnc2)C1CCc1ccccc1 (centres unmarked) [Compound 47, 6-Methyl-2-[4-(2-methylimidazo[4,5-c]pyridin-1-yl)phenyl]-4-(2-phenylethyl)-1,4-dihydropyridin-3,5-dicarboxylate 3-ethylester 5-[4-(3-pyridyl)-3-butynyl]ester] | 15.2 | 148 | 
CCOC(=O)C1=C(c2ccc(-n3c(C)nc4cnccc43)cc2)NC(C)=C(C(=O)OCC#Cc2cccnc2)C1CC(c1ccccc1)c1ccccc1 (centres unmarked) [Compound 60] | 16.3 | 158 | 
CCOC(=O)C1=C(c2ccc(-n3c(C)nc4cnccc43)cc2)NC(C)=C(C(=O)OCC#Cc2cccnc2)C1C1CCCCC1 (centres unmarked) [Compound 4, 4-Cyclohexyl-6-methyl-2-[4-(2-methylimidazo[4,5-c]pyridin-1-yl)phenyl]-1,4-dihydropyridin-3,5-dicarboxylate 3-ethylester 5-[3-(3-pyridyl)-2-propynyl]ester] | 14.8 | 161 | 
CCOC(=O)C1=C(c2ccc(-n3c(C)nc4cnccc43)cc2)NC(C)=C(C(=O)OCC#Cc2cccnc2)C1C=C1c2ccccc2C2C(c3ccccc31)C2(F)F (centres unmarked) [Compound 67, 4-(1,1-Difluoro-1,1a,6,10b-tetrahydrodibenzo[a,e]cyclopropa[c]cyclohepten-6-ylidenemethyl)-6-methyl-2-[4-(2-methylimidazo[4,5-c]pyridin-1-yl)phenyl]-1,4-dihydropyridin-3,5-dicarboxylate 3-ethylester 5-[3-(3-pyridyl)-2-propynyl]ester] | 14.3 | 139 | 
CCOC(=O)C1=C(c2ccc(-n3c(C)nc4cnccc43)cc2)NC(C)=C(C(=O)OCC#Cc2cnc3ccccc3c2)C1/C=C/c1ccccc1 (centres unmarked) [Compound 19, 6-Methyl-2-[4-(2-methylimidazo[4,5-c]pyridin-1-yl)phenyl]-4-[(E)-2-(2-phenyl)ethenyl]-1,4-dihydropyridin-3,5-dicarboxylate 3-ethylester 5-[(3-quonolyl)-2-propynyl]ester] | 16.0 | 157 | 
CCOC(=O)C1=C(c2ccc(-n3c(C)nc4cnccc43)cc2)NC(C)=C(C(=O)OC(C)C#Cc2cccnc2)C1CCc1ccccc1 (centres unmarked) [Compound 23, 6-Methyl-2-[4-(2-methylimidazo[4,5-c]pyridin-1-yl)phenyl]-4-(2-phenylethyl)-1,4-dihydropyridin-3,5-dicarboxylate 3-ethylester 5-[1-methyl-3-(3-pyridyl)-2-propynyl]ester] | 15.8 | 172 | Average days of survival [1]: 13.0 days; Effect of overcoming resistance T/V [1]: 123%; Rate of prolongation of life T/C ([1]; vs control): 125%
CCOC(=O)C1=C(c2ccc(-n3c(C(C)C)nc4cnccc43)cc2)NC(C)=C(C(=O)OCC#Cc2cccnc2)C1CC(c1ccccc1)c1ccccc1 (centres unmarked) [Compound 71, 4-(2,2-Diphenylethyl)-2-[4-(2-isopropylimidazo[4,5-c]pyridin-1-yl)phenyl]-6-methyl-1,4-dihydropyridin-3,5-dicarboxylate 3-ethylester 5-[3-(3-pyridyl)-2-propynyl]ester] |  |  | Average days of survival [1]: 17.4 days; Effect of overcoming resistance T/V [1]: 164%; Rate of prolongation of life T/C ([1]; vs control): 167%

Source: patent publication US6306853A, “1,4-Dihydropyridine derivatives” (Nikken Chemicals Co., Ltd., priority 1998, dated 2001)
